Target: T1, reconstituted TmAHAS (MI + MS) (Thermotoga maritima, UniProt Q9WZ18)
T1 sequence (Q9WZ18 1-584): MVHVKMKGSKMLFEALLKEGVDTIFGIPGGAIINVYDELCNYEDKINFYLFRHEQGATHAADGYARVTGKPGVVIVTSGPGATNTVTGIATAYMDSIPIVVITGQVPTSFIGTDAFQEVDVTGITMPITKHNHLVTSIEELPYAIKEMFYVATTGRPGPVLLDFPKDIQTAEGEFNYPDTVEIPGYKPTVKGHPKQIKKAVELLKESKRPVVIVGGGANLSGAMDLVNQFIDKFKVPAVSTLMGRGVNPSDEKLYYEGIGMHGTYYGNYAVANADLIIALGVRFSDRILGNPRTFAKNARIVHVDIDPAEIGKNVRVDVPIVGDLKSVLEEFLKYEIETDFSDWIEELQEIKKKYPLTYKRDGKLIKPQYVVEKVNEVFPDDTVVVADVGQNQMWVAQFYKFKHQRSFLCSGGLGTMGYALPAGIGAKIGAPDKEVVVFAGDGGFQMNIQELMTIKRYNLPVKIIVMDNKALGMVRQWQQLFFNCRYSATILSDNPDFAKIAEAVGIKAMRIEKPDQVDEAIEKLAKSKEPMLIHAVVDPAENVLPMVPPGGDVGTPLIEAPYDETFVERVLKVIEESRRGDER
T1 sequence (Q9WZ19 1-171 partner): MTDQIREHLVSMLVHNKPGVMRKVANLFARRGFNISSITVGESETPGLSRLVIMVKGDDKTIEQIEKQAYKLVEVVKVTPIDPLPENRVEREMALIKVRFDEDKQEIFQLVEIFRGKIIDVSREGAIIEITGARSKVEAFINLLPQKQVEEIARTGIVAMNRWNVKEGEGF
Assay: acetaldehyde
Type: biochemical
Details: reconstituted catalytic and regulatory subunits; 80 °C, anaerobic

CC(=O)C(=O)O [pyruvate]
acetaldehyde (PDC) and acetolactate (AHAS) production from pyruvate: The reconstitution of the enzyme TmAHAS resulted in considerable and reproducible increase of both PDC

Source: PMC5613635 (Biochemistry and Biophysics Reports, 2016)
